Experimental data from patent publication US8361965B2, “Recombinant chimeric protein of neutrophil inhibitory factor and hirugen, and pharmaceutical composition thereof” (Lunan Pharmaceutical Group Corporation, priority 2008, dated 2013).

Columns and labels:
blood coagulation system [1] = assay: effects on blood coagulation system of New Zealand rabbits in vivo (APTT, PT, TT); set-up: species or system New Zealand rabbit; PT: unit not given beside the values; APTT / TT: unit not given here
Experimental: Medicaments were administrated via intravenous injection from marginal ear vein, and 1.8 ml blood was harvested from marginal ear veins at the time of before administration (0 min), and 10 min, 30 min, 60 min, 120 min and 240 min after administration, respectively (the time for injecting is 2 min). 3.2% sodium citrate (9:1) was added for anticoagulation and then mixed and centrifuged at 3000 rpm/min for 3 min. The plasma was send to Department of Clinical Laboratory, Southwest Hospital for determining blood coagulation indexes (APTT, TT and PT) with a full automatic coagulation analyzer and the difference before and after administration was obtained by comparison.

blood coagulation system [2] = assay: effects on blood coagulation system of New Zealand rabbits in vitro (APTT, PT, TT); format: biochemical, New Zealand rabbit; set-up: PT: unit not given beside the values; APTT / TT: unit not given here
Experimental: Medicaments were diluted to the following concentrations for use: TNHH: 3.0 mg/ml; 1.0 mg/ml; 333 μg/ml; bivalrudin: 600 μg/ml; 200 μg/ml; 67 μg/ml; Hirudin: 660 μg/ml; 220 μg/ml; 73 μg/ml.
The blood was sampled from six New Zealand rabbits (10×1.8 ml for each one) from marginal ear vein and added into 10 anticoagulation tubes, respectively. 3.2% sodium citrate (9:1) was added for anticoagulation.
20 μl anticoagulated blood was taken from each tube, followed by the addition of 20 μl above diluted medicaments for each tube. 20 μl physiological saline was added into the control tube. Samples were mixed thoroughly and centrifuged at 3000 rpm/min for 3 min, and plasma was send to Department of Clinical Laboratory, Southwest Hospital for determining blood coagulation indexes (APTT, TT and PT) with a full automatic coagulation analyzer and the difference before and after administration was obtained by comparison.

leukocyte adhesion = assay: anti-leukocyte adhesion activity, in vitro comparative analysis; format: cell-based; conditions: in vitro
rabbit whole blood = assay: in vitro whole blood anticoagulation assay; set-up: species or system white rabbit; conditions: 0.2 ml heparin sodium 1 mg/ml + 1.0 ml rabbit blood; room temperature 15 min
Experimental: TNHH was diluted to 4 mg/ml, 2 mg/ml, 1 mg/ml, 0.5 mg/ml respectively with phosphate buffer solution (10 mmol/L PB, 0.15 mol/L NaCl, pH7.4). Heparin sodium was prepared to 1 mg/ml with the same buffer solution.
Venous blood was taken from marginal ear vein of the rabbit, and rapidly added into 0#-5# tubes. 0.2 ml of the diluted TNHH samples with different concentrations was added into the 1#-4# tubes, respectively. 0.2 ml phosphate buffer solution was added into the 0# tube, which was used as a negative control. 0.2 ml heparin sodium (1 mg/ml) was added into the 5# tube, which was used as a positive control. The reagents were mixed rapidly and stored at room temperature for 15 min for observing the results.

[3] = tested on: platelet aggregation induced by human thrombin; assay: antiplatelet aggregation assay (rabbits dosed i.v., thrombin-induced aggregation of PRP); format: in vivo, Japanese Giant Ear White Rabbits
Experimental: Platelet aggregation rate was determined by puncture of the central artery of the ear before administration, and then rabbits were randomly divided into 5 groups (4 in each group) based on the platelet aggregation rate and body weight: (1) negative control group (5.12 mg mannitol/kg), (2) high dose TNHH group (4.0 mg/kg), (3) middle dose TNHH group (2.0 mg/kg), (4) low dose TNHH group (1.0 mg/kg), and (5) positive control group (0.1 mg recombinant hirudin/kg). The rabbits in each group were administered at the dose respectively via intravenous injection from the marginal ear vein. Blood samples were collected at the time of 15 min after administration (timed by stopwatch) by puncture of the central artery of the ear to determine the platelet aggregation rate. The method of platelet aggregation rate determination was described as follows: the blood samples were collected by puncture of the central artery of the ear using silicified syringe. 3.8% anticoagulant sodium citrate solution (blood: anticoagulant=9:1) was used. The sample was centrifuged at 200×g for 8 min, and the supernatant obtained was platelet-rich plasma (PRP); then the remaining part was centrifuged again at 2200×g for 10 min, and the supernatant obtained was platelet-poor plasma (PPP). The platelet in PRP was counted as approximate 4.0×10^5/mm^3. According to Born's turbidimetry, a turbidimetric tube with 200 μl PRP and a small magnetic bar was placed in a platelet aggregation instrument and incubated at 37 for 1 min. After calibrating with PPP, the platelet was induced to aggregate by adding inductive human thrombin (0.76 IU/ml) under stirring. The effect of medicaments on the aggregation of platelet was analyzed using the aggregation curve and the maximum aggregation rate obtained from the instrument. The maximum aggregation rate was calculated according to the formula below: […]

[4] = Bivalrudin 1.50 mg/kg i.v., 0 min (before administration)
[5] = Bivalrudin 1.50 mg/kg i.v., 10 min
[6] = Bivalrudin 1.50 mg/kg i.v., 30 min
[7] = Bivalrudin 1.50 mg/kg i.v., 60 min
[8] = Bivalrudin 1.50 mg/kg i.v., 120 min
[9] = Bivalrudin 1.50 mg/kg i.v., 240 min
[10] = bivalrudin 0.67 μg/ml in rabbit blood
[11] = bivalrudin 2.00 μg/ml in rabbit blood
[12] = bivalrudin 6.00 μg/ml in rabbit blood
[13] = Hirudin 0.50 mg/kg i.v., 0 min (before administration)
[14] = Hirudin 0.50 mg/kg i.v., 10 min
[15] = Hirudin 0.50 mg/kg i.v., 30 min
[16] = Hirudin 0.50 mg/kg i.v., 60 min
[17] = Hirudin 0.50 mg/kg i.v., 120 min
[18] = Hirudin 0.50 mg/kg i.v., 240 min
[19] = hirudin 0.73 μg/ml in rabbit blood
[20] = hirudin 2.20 μg/ml in rabbit blood
[21] = hirudin 6.60 μg/ml in rabbit blood

For “Bivalrudin: lyophilized powder for injection, manufactured by Chengdu Jiexun Biotechnical Co., Ltd. [reference compound]”, the APTT (blood coagulation system [1]; [4]) was 40.7 ± 5.77, the PT (blood coagulation system [1]; [4]) was 6.87 ± 0.21 and the TT (blood coagulation system [1]; [4]) was 15.28 ± 1.60. For the same molecule, the APTT (blood coagulation system [1]; [5]) was 45.75 ± 7.20, the PT (blood coagulation system [1]; [5]) was 8.27 ± 0.67 and the TT (blood coagulation system [1]; [5]) was 71.18 ± 23.37. For the same molecule, the APTT (blood coagulation system [1]; [6]) was 39.33 ± 6.62, the PT (blood coagulation system [1]; [6]) was 7.40 ± 0.27 and the TT (blood coagulation system [1]; [6]) was 36.12 ± 14.00. The APTT (blood coagulation system [1]; [7]) was 38.03 ± 5.55, the PT (blood coagulation system [1]; [7]) was 7.10 ± 0.15 and the TT (blood coagulation system [1]; [7]) was 26.68 ± 7.30. It also gave an APTT (blood coagulation system [1]; [8]) of 32.68 ± 4.77, a PT (blood coagulation system [1]; [8]) of 7.02 ± 0.12 and a TT (blood coagulation system [1]; [8]) of 15.40 ± 2.16. It also gave an APTT (blood coagulation system [1]; [9]) of 34.57 ± 5.56, a PT (blood coagulation system [1]; [9]) of 6.90 ± 0.18 and a TT (blood coagulation system [1]; [9]) of 15.50 ± 2.36. The APTT (blood coagulation system [2]; [10]) was 35.12 ± 8.04, the PT (blood coagulation system [2]; [10]) was 7.83 ± 0.39 and the TT (blood coagulation system [2]; [10]) was 43.22 ± 8.13. It also gave an APTT (blood coagulation system [2]; [11]) of 40.75 ± 8.71, a PT (blood coagulation system [2]; [11]) of 8.75 ± 0.52 and a TT (blood coagulation system [2]; [11]) of 53.67 ± 9.03. It also gave an APTT (blood coagulation system [2]; [12]) of 55.00 ± 12.4, a PT (blood coagulation system [2]; [12]) of 11.08 ± 1.20 and a TT (blood coagulation system [2]; [12]) of 85.38 ± 23.07.

With “Hirogen: artificial dodecapeptide based on the C-terminal 53rd-64th amino acids of hirudin (NGDFEEIPEEYL) (not fully specified) [reference compound]” the anti-leukocyte adhesion activity (leukocyte adhesion) was “none”.

In the case of heparin sodium [reference compound], the “Test results (blood coagulation)” value (rabbit whole blood) is reported as “not coagulated and Non-”.

hirudin [reference compound] showed an APTT (blood coagulation system [1]; [13]) of 38.02 ± 6.54, a PT (blood coagulation system [1]; [13]) of 6.80 ± 0.28 and a TT (blood coagulation system [1]; [13]) of 16.40 ± 1.73. It also gave an APTT (blood coagulation system [1]; [14]) of 39.97 ± 5.69, a PT (blood coagulation system [1]; [14]) of 7.27 ± 0.22 and a TT (blood coagulation system [1]; [14]) of 112.70. It also gave an APTT (blood coagulation system [1]; [15]) of 37.72 ± 5.55, a PT (blood coagulation system [1]; [15]) of 7.01 ± 0.31 and a TT (blood coagulation system [1]; [15]) of 84.93 ± 49.24. The APTT (blood coagulation system [1]; [16]) was 35.02 ± 7.59, the PT (blood coagulation system [1]; [16]) was 6.95 ± 0.34 and the TT (blood coagulation system [1]; [16]) was 58.17 ± 33.19. It also gave an APTT (blood coagulation system [1]; [17]) of 32.05 ± 5.69, a PT (blood coagulation system [1]; [17]) of 6.97 ± 0.27 and a TT (blood coagulation system [1]; [17]) of 30.42 ± 17.09. For the same molecule, the APTT (blood coagulation system [1]; [18]) was 32.07 ± 5.97, the PT (blood coagulation system [1]; [18]) was 7.08 ± 0.26 and the TT (blood coagulation system [1]; [18]) was 16.30 ± 2.32. It also gave an APTT (blood coagulation system [2]; [19]) of 37.47 ± 6.15, a PT (blood coagulation system [2]; [19]) of 7.33 ± 0.33 and a TT (blood coagulation system [2]; [19]) of 50.40 ± 8.19. It also gave an APTT (blood coagulation system [2]; [20]) of 52.85 ± 15.88, a PT (blood coagulation system [2]; [20]) of 7.87 ± 0.37 and a TT (blood coagulation system [2]; [20]) of 102.77 ± 21.90. The APTT (blood coagulation system [2]; [21]) was 58.43 ± 14.36, the PT (blood coagulation system [2]; [21]) was 9.37 ± 1.30 and the TT (blood coagulation system [2]; [21]) was 116.40 ± 8.82. The “aggregation ratio, Before administration” value ([3]; hirudin 0.1 mg/kg group) was 58.44 ± 4.42%, the “aggregation ratio, 15 min after administration” value ([3]; hirudin 0.1 mg/kg i.v.) was 4.34 ± 6.88% and the “aggregation ratio, difference” value ([3]; hirudin 0.1 mg/kg i.v., before vs 15 min after) was 54.09 ± 8.69 %.

B1: TNHH-G15/n3: recombinant TNHH with linker 1 (Gly)15 and linker 2 (GSGG)3: NIF-(Gly)15-FPRP-(GSGG)3-hirugen (protein)
chain: MNEHNLRCPQNGTEMPGFNDSIRLQFLAMHNGYRSKLALGHISITEESESDDDDDFGFLPDFAPRASKMRYLEYDCEAEKSAYMSARNCSDSSSPPEGYDENKYIFENSNNISEAALKAMISWAKEAFNLNKTKEGEGVLYRSNHDISNFANLAWDAREKFGCAVVNCPLGEIDDETNHDGETYATTIHVVCHYPKINKTEGQPIYKVGTPCDDCSEYTKKADNTTSADPVCIPDDGVCFIGSKADYDSKEFYRFRELGGGGGGGGGGGGGGGFPRPGSGGGSGGGSGGNGDFEEIPEEYL
Molecule B1 has an anti-leukocyte adhesion activity (leukocyte adhesion) of 740 Unit/mg.
